Results: ChEMBL document CHEMBL1141715, “Novel BK channel openers containing dehydroabietic acid skeleton: structure-activity relationship for peripheral substituents on ring C” (Bioorg Med Chem Lett, 2008)

Target: Calcium-activated potassium channel subunit alpha-1 (Homo sapiens) (UniProt Q12791)
Assay: Channel opening activity at human BKalpha channel expressed in CHOK1 cells assessed as ionic current amplitude at 30 uM at holding potential of -90 mV by population patch clamp technique relative to untreated control
Assay type: cell-based
Conditions: CHO-K1

Chain of Calcium-activated potassium channel subunit alpha-1 (Homo sapiens) (Q12791 whole entry): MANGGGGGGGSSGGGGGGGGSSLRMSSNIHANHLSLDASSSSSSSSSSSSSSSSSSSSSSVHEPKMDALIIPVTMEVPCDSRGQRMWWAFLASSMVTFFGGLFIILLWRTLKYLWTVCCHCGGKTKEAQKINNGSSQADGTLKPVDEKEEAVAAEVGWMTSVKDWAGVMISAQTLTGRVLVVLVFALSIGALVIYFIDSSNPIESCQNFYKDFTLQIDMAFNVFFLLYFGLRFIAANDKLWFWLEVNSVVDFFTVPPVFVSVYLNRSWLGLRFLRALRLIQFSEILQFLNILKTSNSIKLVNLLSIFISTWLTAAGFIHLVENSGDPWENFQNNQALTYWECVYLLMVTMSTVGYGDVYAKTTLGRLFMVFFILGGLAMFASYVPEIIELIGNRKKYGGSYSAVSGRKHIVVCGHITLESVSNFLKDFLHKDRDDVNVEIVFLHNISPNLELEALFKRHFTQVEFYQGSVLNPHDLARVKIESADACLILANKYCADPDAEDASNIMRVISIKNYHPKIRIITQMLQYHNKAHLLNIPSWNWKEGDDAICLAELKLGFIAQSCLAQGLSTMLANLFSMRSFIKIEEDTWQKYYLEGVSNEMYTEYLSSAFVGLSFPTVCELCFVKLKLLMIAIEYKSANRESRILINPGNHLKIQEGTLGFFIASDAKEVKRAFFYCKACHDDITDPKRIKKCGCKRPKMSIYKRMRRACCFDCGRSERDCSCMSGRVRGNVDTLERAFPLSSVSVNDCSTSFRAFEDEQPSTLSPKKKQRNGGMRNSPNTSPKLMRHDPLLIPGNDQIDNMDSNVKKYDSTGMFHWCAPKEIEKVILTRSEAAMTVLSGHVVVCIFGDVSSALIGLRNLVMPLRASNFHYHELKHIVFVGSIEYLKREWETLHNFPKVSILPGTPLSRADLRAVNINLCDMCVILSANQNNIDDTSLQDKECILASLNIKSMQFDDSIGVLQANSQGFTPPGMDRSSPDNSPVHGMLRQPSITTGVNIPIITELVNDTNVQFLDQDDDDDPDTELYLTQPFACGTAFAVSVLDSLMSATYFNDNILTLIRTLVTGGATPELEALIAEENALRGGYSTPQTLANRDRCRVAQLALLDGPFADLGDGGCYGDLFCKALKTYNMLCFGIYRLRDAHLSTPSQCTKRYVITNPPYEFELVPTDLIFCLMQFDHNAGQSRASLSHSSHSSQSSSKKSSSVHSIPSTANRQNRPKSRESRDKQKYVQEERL

Row | Activity [%] | Structure (SMILES)
1 | 94.4 | COc1ccc(Cl)cc1NC(=O)Nc1cc2c(cc1C(C)C)CC[C@H]1[C@](C)(C(=O)O)CCC[C@]21C
2 | 92.5 | CC(C)c1cc2c(cc1NC(=O)c1cccc(C(F)(F)F)c1)[C@@]1(C)CCC[C@@](C)(C(=O)O)[C@@H]1CC2
3 | 128 | CC(C)c1cc2c(cc1NC(=O)c1ccc(C(F)(F)F)cc1)[C@@]1(C)CCC[C@@](C)(C(=O)O)[C@@H]1CC2
4 | 136 | CC(C)c1cc2c(cc1NC(=O)Nc1cccc(Cl)c1)[C@@]1(C)CCC[C@@](C)(C(=O)O)[C@@H]1CC2
5 | 151 | CC(C)c1cc2c(cc1NC(=O)Nc1cc(Cl)cc(Cl)c1)[C@@]1(C)CCC[C@@](C)(C(=O)O)[C@@H]1CC2
6 | 107 | CC(C)c1cc2c(cc1NC(=O)CN1CCCCC1)[C@@]1(C)CCC[C@@](C)(C(=O)O)[C@@H]1CC2
7 | 85.9 | COc1cc2c(cc1C(C)C)CC[C@H]1[C@](C)(C(=O)O)CCC[C@]21C
8 | 156 | CC(C)c1cc2c(cc1NC(=O)Nc1ccc(F)c(Cl)c1)[C@@]1(C)CCC[C@@](C)(C(=O)O)[C@@H]1CC2
9 | 95.9 | CC(C)c1cc2c(cc1NC(=O)C1CCCCC1)[C@@]1(C)CCC[C@@](C)(C(=O)O)[C@@H]1CC2
10 | 94.1 | COc1ccc(C(=O)Nc2cc3c(cc2C(C)C)CC[C@H]2[C@](C)(C(=O)O)CCC[C@]32C)cc1
11 | 92.4 | CCCC(=O)Nc1cc2c(cc1C(C)C)CC[C@H]1[C@](C)(C(=O)O)CCC[C@]21C
12 | 59.4 | CC(C)c1cc2c(cc1NC(=O)c1ccccc1C(F)(F)F)[C@@]1(C)CCC[C@@](C)(C(=O)O)[C@@H]1CC2
13 | 118 | CCCOc1cc2c(cc1C(C)C)CC[C@H]1[C@](C)(C(=O)O)CCC[C@]21C
14 | 78.7 | CCCCCCOc1cc2c(cc1C(C)C)CC[C@H]1[C@](C)(C(=O)O)CCC[C@]21C
15 | 128 | CC(C)c1cc2c(cc1NC(=O)Nc1cc(C(F)(F)F)ccc1Cl)[C@@]1(C)CCC[C@@](C)(C(=O)O)[C@@H]1CC2
16 | 83.4 | CC(C)c1cc2c(cc1NC(=O)c1ccc(F)cc1)[C@@]1(C)CCC[C@@](C)(C(=O)O)[C@@H]1CC2
17 | 93.2 | CC(C)c1cc2c(cc1OCCCc1ccccc1)[C@@]1(C)CCC[C@@](C)(C(=O)O)[C@@H]1CC2
18 | 180 | CC(C)c1c(Cl)cc2c(c1Cl)CC[C@H]1[C@](C)(C(=O)O)CCC[C@]21C
19 | 81.8 | CCCCCCCCCOc1cc2c(cc1C(C)C)CC[C@H]1[C@](C)(C(=O)O)CCC[C@]21C
20 | 130 | CC(C)C(=O)Nc1cc2c(cc1C(C)C)CC[C@H]1[C@](C)(C(=O)O)CCC[C@]21C
21 | 88.9 | CC(C)c1cc2c(cc1N)[C@@]1(C)CCC[C@@](C)(C(=O)O)[C@@H]1CC2
22 | 132 | CC(C)c1cc2c(cc1NC(=O)Nc1cc(C(F)(F)F)cc(C(F)(F)F)c1)[C@@]1(C)CCC[C@@](C)(C(=O)O)[C@@H]1CC2
23 | 88.2 | CC(C)c1ccc2c(c1N)CC[C@H]1[C@](C)(C(=O)O)CCC[C@]21C
24 | 90.2 | CCC(=O)Nc1cc2c(cc1C(C)C)CC[C@H]1[C@](C)(C(=O)O)CCC[C@]21C

Row | Activity [%] | Structure (SMILES)
25 | 103 | CCCCCCCCCCCC(=O)Nc1cc2c(cc1C(C)C)CC[C@H]1[C@](C)(C(=O)O)CCC[C@]21C
26 | 114 | CC(C)c1cc2c(cc1NC(=O)Nc1ccccc1C(F)(F)F)[C@@]1(C)CCC[C@@](C)(C(=O)O)[C@@H]1CC2
27 | 89.5 | CC(C)c1cc2c(cc1OCc1ccccc1)[C@@]1(C)CCC[C@@](C)(C(=O)O)[C@@H]1CC2
28 | 138 | CC(C)c1cc2c(cc1NC(=O)Nc1ccc(C(F)(F)F)cc1)[C@@]1(C)CCC[C@@](C)(C(=O)O)[C@@H]1CC2
29 | 86.5 | COc1ccccc1C(=O)Nc1cc2c(cc1C(C)C)CC[C@H]1[C@](C)(C(=O)O)CCC[C@]21C
30 | 143 | CC(C)c1cc2c(cc1NC(=S)Nc1cccc(C(F)(F)F)c1)[C@@]1(C)CCC[C@@](C)(C(=O)O)[C@@H]1CC2
31 | 139 | CC(C)c1cc2c(cc1NC(=O)Nc1ccc(F)c(F)c1)[C@@]1(C)CCC[C@@](C)(C(=O)O)[C@@H]1CC2
32 | 168 | CC(C)c1cc2c(cc1NC(=O)Nc1ccc(Cl)c(C(F)(F)F)c1)[C@@]1(C)CCC[C@@](C)(C(=O)O)[C@@H]1CC2
33 | 91.6 | CC(C)c1cc2c(cc1NC(=O)C1CC1)[C@@]1(C)CCC[C@@](C)(C(=O)O)[C@@H]1CC2
34 | 89.9 | CCNC(=O)Nc1cc2c(cc1C(C)C)CC[C@H]1[C@](C)(C(=O)O)CCC[C@]21C
35 | 72.7 | CC(C)c1cc2c(cc1NC(=O)Nc1ccccc1)[C@@]1(C)CCC[C@@](C)(C(=O)O)[C@@H]1CC2
36 | 99.9 | CC(C)c1cc2c(cc1NC(=O)Nc1cccc(C(F)(F)F)c1)[C@@]1(C)CCC[C@@](C)(C(=O)O)[C@@H]1CC2
37 | 83.7 | CC(C)c1cc2c(cc1OCc1ccc3ccccc3c1)[C@@]1(C)CCC[C@@](C)(C(=O)O)[C@@H]1CC2
38 | 240 | CC(C)c1cc2c(cc1NC(=S)Nc1cc(C(F)(F)F)cc(C(F)(F)F)c1)[C@@]1(C)CCC[C@@](C)(C(=O)O)[C@@H]1CC2
39 | 200 | CC(C)c1c([N+](=O)[O-])cc2c(c1[N+](=O)[O-])CC[C@H]1[C@](C)(C(=O)O)CCC[C@]21C
40 | 108 | CC(C)c1cc2c(cc1NC(=O)c1ccc(Cl)cc1)[C@@]1(C)CCC[C@@](C)(C(=O)O)[C@@H]1CC2
41 | 90.9 | CC(C)c1cc2c(cc1NC(=O)Cc1ccccc1)[C@@]1(C)CCC[C@@](C)(C(=O)O)[C@@H]1CC2
42 | 107 | COc1ccc(NC(=O)Nc2cc3c(cc2C(C)C)CC[C@H]2[C@](C)(C(=O)O)CCC[C@]32C)cc1
43 | 96.1 | CC(=O)Nc1cc2c(cc1C(C)C)CC[C@H]1[C@](C)(C(=O)O)CCC[C@]21C
44 | 91.6 | CC(C)c1cc2c(cc1OCc1ccc(Cl)cc1)[C@@]1(C)CCC[C@@](C)(C(=O)O)[C@@H]1CC2
45 | 125 | CC(C)Oc1cc2c(cc1C(C)C)CC[C@H]1[C@](C)(C(=O)O)CCC[C@]21C
46 | 110 | CC(C)c1c(N)cc2c(c1N)CC[C@H]1[C@](C)(C(=O)O)CCC[C@]21C
47 | 81.8 | CC(C)c1cc2c(cc1NC(=O)c1cc(C(F)(F)F)cc(C(F)(F)F)c1)[C@@]1(C)CCC[C@@](C)(C(=O)O)[C@@H]1CC2
48 | 90 | CC(C)c1cc2c(cc1NC(=O)c1ccccc1)[C@@]1(C)CCC[C@@](C)(C(=O)O)[C@@H]1CC2

Row | Structure (SMILES) | Activity [%]
49 | CC(C)c1cc2c(cc1O)[C@@]1(C)CCC[C@@](C)(C(=O)O)[C@@H]1CC2 | 83
